These results are taken from patent publication US6403791B1, “Heterocyclic compounds and their therapeutic use” (Darwin Discovery, Ltd., priority 2000, dated 2002).

A short description of this data set: Oral pharmacokinetics (Cmax) in guinea pigs. The settings on record: guinea pig, in vivo, dosed orally at 3 mg/kg to guinea pigs.

Broadly, the Cmax is the maximum level reached in the sampled fluid or tissue. `CCc1nc2c(OC(F)F)ccc(C(=O)Nc3c(C)noc3C)c2o1` [Example 1, 4-Difluoromethoxy-2-ethylbenzooxazole-7-carboxylic acid (3,5-dimethylisoxazole-4-yl)-amide] returned a Cmax of 4370 ng/mL.
